Measurements taken from US7863449B2, “Modulators of muscarinic receptors” (Vertex Pharmaceuticals Incorporated, priority 2004, dated 2011).

What was measured:
M4 muscarinic receptor = molecular target: T1, M4 muscarinic receptor (Homo sapiens, UniProt P08173); experiment: Functional mobilization of intracellular calcium (FLIPR), M4-CHO cells; format: cell-based
T1 construct: expressed in transfected cells; host or cells: CHO (M4-CHO)
T1 sequence (P08173 1-479): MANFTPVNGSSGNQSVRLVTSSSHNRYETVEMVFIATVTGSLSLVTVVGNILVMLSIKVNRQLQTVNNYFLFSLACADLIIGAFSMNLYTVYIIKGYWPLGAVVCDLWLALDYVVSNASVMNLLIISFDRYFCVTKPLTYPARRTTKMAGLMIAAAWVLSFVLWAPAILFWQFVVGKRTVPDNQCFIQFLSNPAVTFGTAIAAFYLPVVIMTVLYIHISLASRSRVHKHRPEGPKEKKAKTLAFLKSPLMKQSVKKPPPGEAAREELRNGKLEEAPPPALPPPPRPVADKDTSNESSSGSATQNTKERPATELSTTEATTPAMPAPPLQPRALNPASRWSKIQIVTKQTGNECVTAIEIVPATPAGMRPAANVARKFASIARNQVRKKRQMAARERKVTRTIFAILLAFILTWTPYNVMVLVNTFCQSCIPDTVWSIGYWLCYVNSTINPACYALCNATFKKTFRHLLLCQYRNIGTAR
Outline: (§1)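 CHO cells expressing M1 or M4, loaded with Fluo-3 AM or Calcium 3 dye with 1 mM probenecid, 0.5% DMSO final. Agonist mode: compound added directly; antagonist mode: 15 min pre-incubation (or co-application) before carbachol at EC80. Fluorescence recorded 60 s on FLIPR.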

M1 muscarinic receptor = molecular target: T2, M1 muscarinic receptor (Homo sapiens, UniProt P11229); experiment: Functional mobilization of intracellular calcium (FLIPR), M1-CHO cells; format: cell-based
T2 construct: expressed in transfected cells; host or cells: CHO (M1-CHO)
T2 sequence (P11229 1-460): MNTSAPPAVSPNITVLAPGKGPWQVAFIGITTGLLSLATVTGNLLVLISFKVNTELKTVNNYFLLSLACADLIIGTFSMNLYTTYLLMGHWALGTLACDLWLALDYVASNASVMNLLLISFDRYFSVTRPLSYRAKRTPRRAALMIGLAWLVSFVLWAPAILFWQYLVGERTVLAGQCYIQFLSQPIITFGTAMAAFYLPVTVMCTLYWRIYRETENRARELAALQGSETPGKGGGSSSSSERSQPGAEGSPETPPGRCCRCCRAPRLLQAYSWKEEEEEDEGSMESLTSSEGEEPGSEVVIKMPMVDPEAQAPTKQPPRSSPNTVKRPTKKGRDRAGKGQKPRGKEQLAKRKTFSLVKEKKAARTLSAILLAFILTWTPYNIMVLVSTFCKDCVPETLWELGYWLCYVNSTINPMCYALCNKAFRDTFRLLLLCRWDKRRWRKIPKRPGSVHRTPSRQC
Outline: as §1

[1] = 100% efficacy is the maximum response obtained using Carbachol as a control

With `CCOC(=O)N1C2CCC1CC(N1CCC3(CC1)CN(C(=O)NC1CCCCC1)Cc1ccccc13)C2` (stereo not shown) [compound 358] the Emax (M4 muscarinic receptor; [1]) was 25 to 100%, the “M4 Activity” value (M4 muscarinic receptor; M4-CHO cells, FLIPR calcium mobilization) was “+++ (activity was measured to be less than 1.0 μM)” and the Emax (M1 muscarinic receptor; [1]) was 25 to 100%. The “M1 Activity” value (M1 muscarinic receptor; M1-CHO cells, FLIPR calcium mobilization) was “+++ (activity was measured to be less than 1.0 μM)”.
